# Laboratory results: paper PMC8365602 (Journal of Medicinal Chemistry, 2021)
# Like-named read-outs stand apart in the source and are kept apart here.
# What was measured:
# 5-LOX [1] = biological target: T1, 5-LOX (Homo sapiens, UniProt P09917); conditions: supplementary csv; # published in ref Pein et al.4; read-out: IC50 (5-LOX PMNL); cited from earlier work
# T1 sequence (P09917 1-674): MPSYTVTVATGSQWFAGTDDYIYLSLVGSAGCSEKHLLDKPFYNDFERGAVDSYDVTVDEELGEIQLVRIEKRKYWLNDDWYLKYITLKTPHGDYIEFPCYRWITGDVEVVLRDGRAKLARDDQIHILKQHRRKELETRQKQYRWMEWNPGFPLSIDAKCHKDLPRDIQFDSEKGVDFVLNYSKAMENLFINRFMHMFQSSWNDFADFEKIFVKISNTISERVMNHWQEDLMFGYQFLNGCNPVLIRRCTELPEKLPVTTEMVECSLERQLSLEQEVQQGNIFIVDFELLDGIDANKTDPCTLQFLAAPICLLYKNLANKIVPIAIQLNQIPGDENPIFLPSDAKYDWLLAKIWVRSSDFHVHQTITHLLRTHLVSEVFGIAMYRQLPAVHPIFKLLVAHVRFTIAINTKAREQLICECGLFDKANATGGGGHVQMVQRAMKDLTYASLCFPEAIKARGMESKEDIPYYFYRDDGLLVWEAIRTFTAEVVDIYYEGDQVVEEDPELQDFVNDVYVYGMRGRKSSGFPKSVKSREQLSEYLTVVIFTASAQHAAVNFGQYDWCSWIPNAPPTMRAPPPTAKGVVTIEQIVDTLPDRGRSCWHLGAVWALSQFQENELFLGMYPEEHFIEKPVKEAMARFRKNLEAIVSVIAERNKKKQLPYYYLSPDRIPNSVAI
# 5-LOX [2] = biological target: T1, 5-LOX; experiment: 5-LOX product formation in activated PMNL; conditions: for remaining activity at 3 µM / remaining activity at 1 µM: PMNL; for remaining activity at 1 µM: read-out: 5-LOX PMNL residual activity at 1 μM (cells marked b);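 as to all read-outs here: freshly isolated human PMNL in PBS pH 7.4 plus glucose, preincubated 10 min at 37 °C with compound, 5-LOX products (all-trans LTB4 isomers, 5-HETE) quantified by RP-HPLC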
# 5-LOX [3] = biological target: T1, 5-LOX; set-up: made in house; host or cells: E. coli Bl21 (DE3); conditions: supplementary csv; # published in ref Pein et al.4; read-out: IC50 (5-LOX enzyme); cited from earlier work
# 5-LOX [4] = biological target: T1, 5-LOX; experiment: Cell-free 5-LOX activity (isolated human recombinant enzyme)
# Method: Human recombinant 5-LOX was expressed in E. coli Bl21 (DE3) cells that were transformed with pT3–5LOX (wt 5-LOX), 5-LOX_3W (triple mutation of Trp102Ala/Trp13Ala/Trp75Ala), or 5-LOX_R (single mutant of the Arg101Asp plasmid) and purified on an ATP-agarose column (Econo-Pac, Bio-Rad, Hercules, CA) by affinity chromatography.[6],[75]
# Purified 5-LOX (0.5 μg in PBS pH 7.4 containing 1 mM EDTA and 1 mM ATP) was preincubated with the vehicle (DMSO) or test compounds for 10 min and prewarmed at 37 °C.
# [5] = read-out: 5-LOX PMNL residual activity at 3 µM (Table S1)
# [6] = read-out: 5-LOX enzyme residual activity at 1 µM (Table S1)
# [7] = read-out: 5-LOX PMNL residual activity at 3 μM
# [8] = read-out: 5-LOX PMNL IC50, 5-LOX product formation in activated PMNL, mean ± SEM
# [9] = read-out: 5-LOX enzyme IC50, isolated human 5-LOX, cell-free, mean ± SEM
# [10] = read-out: 5-LOX enzyme residual activity at 1 μM
SMILES,remaining activity at 3 µM (5-LOX [2]; [7]) [%],IC50 (5-LOX [2]; [8]) [nM],IC50 (5-LOX [4]; [9]) [nM],remaining activity at 1 µM (5-LOX [4]; [10]) [%],other results
CC(C)=CCC/C(C)=C/CC/C(C)=C/CC[C@]1(C)CCc2cc(O)c(C)c(C)c2O1 [Compound 6c],–,–,–,–,IC50 (5-LOX [1]): > 3000 nM; remaining activity at 3 µM (5-LOX [2]; [5]): 73.5 ± 1.2%; IC50 (5-LOX [3]): 200 ± 60 nM; remaining activity at 1 µM (5-LOX [4]; [6]): 6.4 ± 3.2%
"C/C(=C\CC/C(C)=C/CC[C@]1(C)CCc2cc(O)cc(C)c2O1)CC/C=C/C(=O)O [Compound 14, (2E,6E,10E)-13-[(2R)-6-Hydroxy-2,8-dimethyl-3,4-dihydro-2H-1-benzopyran-2-yl]-6,10-dimethyltrideca-2,6,10-trienoic Acid]",26.9 ± 4.8,2200 ± 140,440 ± 80,24.5 ± 2.8,–
CC(C)=CCC/C(C)=C/CC/C(C)=C/CC[C@]1(C)CCc2c(C=O)c(O)c(Br)c(C)c2O1 [Compound 8],–,–,–,–,IC50 (5-LOX [2]): > 3000 nM; remaining activity at 3 µM (5-LOX [2]; [5]): 79.2 ± 16.7%; IC50 (5-LOX [4]): > 1000 nM; remaining activity at 1 µM (5-LOX [4]; [6]): 59 ± 5.9%
"C/C(=C\CC/C(C)=C/CC[C@]1(C)CCc2c(CN3CCCC3)c(O)cc(C)c2O1)CCC=C(CO)CO [Compound 35, 2-((4E,8E)-11-((R)-6-Hydroxy-2,8-dimethyl-5-(pyrrolidin-1-ylmethyl)chroman-2-yl)-4,8-dimethylundeca-4,8-dien-1-ylidene)propane-1,3-diol]",17.4 ± 2.4,1900 ± 110,170 ± 30,4.1 ± 0.2,–
"C/C(=C\CC[C@]1(C)CCc2c(C)c(O)cc(C)c2O1)CC/C=C(\C)CCCC(C)C(=O)O (stereo partly drawn) [Compound 19a, (6E,10E)-13-((R)-6-Hydroxy-2,5,8-trimethylchroman-2-yl)-2,6,10-trimethyltrideca-6,10-dienoic Acid]",14.2 ± 6.5,810 ± 330,810 ± 80,41.2 ± 6.2,–
"Cc1cc(O)cc2c1O[C@](C)(CCCC(C)CCCC(C)CCCC(CO)CO)CC2 (stereo partly drawn) [Compound 26, 2-(11-((R)-6-Hydroxy-2,8-dimethylchroman-2-yl)-4,8-dimethylundecyl)propane-1,3-diol]",81.3 ± 0.7,> 3000,> 1000,53.1 ± 7.4,–
"CCOC(=O)c1cc2c3c(c(C)cc2oc1=O)O[C@](C)(CC/C=C(\C)CC/C=C(\C)CCC=C(CO)CO)CC3 [Compound 43, Ethyl-(R)-8-((3E,7E)-13-hydroxy-12-(hydroxymethyl)-4,8-dimethyltrideca-3,7,11-trien-1-yl)-6,8-dimethyl-3-oxo-3,8,9,10-tetrahydropyrano[3,2-f]chromene-2-carboxylate]",8.1 ± 1,1580 ± 210,470 ± 140,29.3 ± 2.6,–
"COc1ccc(C2OCC(=CCC/C(C)=C/CC/C(C)=C/CC[C@]3(C)CCc4c(C)c(O)c(CO)c(C)c4O3)CO2)cc1OC (stereo partly drawn) [Compound 46, (2R)-2-((3E,7E)-11-(2-(3,4-Dimethoxyphenyl)-1,3-dioxan-5-ylidene)-4,8-dimethylundeca-3,7-dien-1-yl)-7-(hydroxymethyl)-2,5,8-trimethylchroman-6-ol]",22.2 ± 8.8,–,–,0.7 ± 0.1,IC50 (5-LOX [2]): 390 ± 180 nM; IC50 (5-LOX [4]): 90 nM
"Cc1cc(O)cc2c1O[C@](C)(CC/C=C/C(=O)O)CC2 [Compound 17, (2E)-5-[(2R)-6-Hydroxy-2,8-dimethyl-3,4-dihydro-2H-1-benzopyran-2-yl]pent-2-enoic Acid]",101 ± 5.2,> 3000,> 1000,65.3 ± 25.2,–
"C/C(=C\CC/C(C)=C/CC[C@]1(C)CCc2c(CN(C)C)c(O)cc(C)c2O1)CCC=C(CO)CO [Compound 36, 2-((4E,8E)-11-((R)-5-((Dimethylamino)methyl)-6-hydroxy-2,8-dimethylchroman-2-yl)-4,8-dimethylundeca-4,8-dien-1-ylidene)propane-1,3-diol]",63.9 ± 14.4,> 3000,110 ± 20,3.7 ± 0.4,–
"C/C(=C\CC/C(C)=C/CC[C@]1(C)CCc2c(CN3CCN(C)CC3)c(O)c(CN3CCN(C)CC3)c(C)c2O1)CCC=C(CO)CO [Compound 40, 2-((4E,8E)-11-((R)-6-Hydroxy-2,8-dimethyl-5,7-bis((4-methylpiperazin-1-yl)methyl)chroman-2-yl)-4,8-dimethylundeca-4,8-dien-1-ylidene)propane-1,3-diol]",77.8 ± 7.6,> 3000,> 1000,50.3 ± 4.1,–
C/C(=C\CC/C(C)=C/CC[C@]1(C)CCc2cc(O)c(C)c(C)c2O1)CCC=C(CO)CO [Compound 27c],0.8 ± 0.2,50 ± 40,–,0.1 ± 0.1,–
Cc1cc(O)cc2c1O[C@](C)(CCCC(C)CCCC(C)CCCC(C)C(=O)O)CC2 (some centres unmarked) [Compound 12b],40.8 ± 3.5,–,–,51.4 ± 3.1,–
"C/C(=C\CC[C@]1(C)CCc2cc(O)cc(C)c2O1)CCC=C(CO)CO [Compound 28, (R,E)-2-(7-(6-Hydroxy-2,8-dimethylchroman-2-yl)-4-methylhept-4-en-1-ylidene)propane-1,3-diol]",36.3 ± 6.5,2300 ± 260,170 ± 30,15 ± 2.4,–
"CC(=O)c1cc2c3c(c(C)cc2oc1=O)O[C@](C)(CC/C=C(\C)CC/C=C(\C)CCC=C(CO)CO)CC3 [Compound 42, (R)-2-Acetyl-8-((3E,7E)-13-hydroxy-12-(hydroxymethyl)-4,8-dimethyltrideca-3,7,11-trien-1-yl)-6,8-dimethyl-9,10-dihydropyrano[3,2-f]chromen-3(8H)-one]",15.3 ± 6.9,1440 ± 420,210 ± 20,23.3 ± 2.3,–
"C/C(=C\CC/C(C)=C/CC[C@]1(C)CCc2cc(OC(=O)CCC(=O)O)cc(C)c2O1)CCC=C(CO)CO [Compound 31, 4-(((R)-2-((3E,7E)-13-Hydroxy-12-(hydroxymethyl)-4,8-dimethyltrideca-3,7,11-trien-1-yl)-2,8-dimethylchroman-6-yl)oxy)-4-oxobutanoic Acid]",–,450 ± 100,90 ± 30,1.1 ± 0.6,remaining activity at 1 µM (5-LOX [2]): 26.4 ± 6.7%
CC(C)=CCC/C(C)=C/CC/C(C)=C/CC[C@]1(C)CCc2c(C)c(O)c(C)c(C)c2O1 [Compound 6a],–,–,–,–,IC50 (5-LOX [1]): > 3000 nM; remaining activity at 3 µM (5-LOX [2]; [5]): 75.5 ± 4.5%; remaining activity at 1 µM (5-LOX [4]; [6]): 16.9 ± 6.6%
"Cc1cc(O)cc2c1O[C@](C)(CCC[C@H](C)CCC[C@H](C)CCCC(C)C)CC2 [Compound 1d, δ-tocopherol]",–,–,–,–,IC50 (5-LOX [1]): > 3000 nM; remaining activity at 3 µM (5-LOX [2]; [5]): 107 ± 3.2%; IC50 (5-LOX [4]): 600 ± 250 nM; remaining activity at 1 µM (5-LOX [4]; [6]): 43.3 ± 7.2%
"C/C(=C\CC/C(C)=C/CC[C@]1(C)CCc2c(CO)c(O)cc(C)c2O1)CCC=C1COC(c2ccc([N+](=O)[O-])cc2)OC1 (stereo partly drawn) [Compound 48, (2R)-2-((3E,7E)-4,8-Dimethyl-11-(2-(4-nitrophenyl)-1,3-dioxan-5-ylidene)undeca-3,7-dien-1-yl)-5-(hydroxymethyl)-2,8-dimethylchroman-6-ol]",15.4 ± 1.9,–,–,14 ± 3.2,IC50 (5-LOX [2]): 490 ± 130 nM; IC50 (5-LOX [4]): 210 ± 130 nM
"C/C(=C\CC[C@]1(C)CCc2cc(O)cc(C)c2O1)CC/C=C(\C)CCCC(C)C(=O)O (stereo partly drawn) [Compound 19b, (6E,10E)-13-((R)-6-Hydroxy-2,8-dimethylchroman-2-yl)-2,6,10-trimethyltrideca-6,10-dienoic Acid]",3.8 ± 0.8,610 ± 150,–,7.4 ± 2.7,–
"COCOc1cc(C)c2c(c1C=O)CC[C@@](C)(CCC[C@H](C)CCC[C@H](C)CCCC(C)C)O2 [Compound 4, (R)-6-(Methoxymethoxy)-2,8-dimethyl-2-((4R,8R)-4,8,12-trimethyltridecyl)chromane-5-carbaldehyde]",–,–,–,–,IC50 (5-LOX [2]): > 3000 nM; remaining activity at 3 µM (5-LOX [2]; [5]): 91.9 ± 5.3%; IC50 (5-LOX [4]): > 1000 nM; remaining activity at 1 µM (5-LOX [4]; [6]): 77.3 ± 17.2%
"C/C(=C\CC[C@]1(C)CCc2cc(O)cc(C)c2O1)CC/C=C(\C)CCC(=O)O [Compound 15b, (4E,8E)-11-((R)-6-Hydroxy-2,8-dimethylchroman-2-yl)-4,8-dimethylundeca-4,8-dienoic Acid]",32 ± 9.8,2190 ± 400,470 ± 140,28.8 ± 5.2,–
"C/C(=C\CC/C(C)=C/CC[C@]1(C)CCc2cc(O)cc(C)c2O1)CCC=C(CO)CO [Compound 27d, δ-amplexichromanol]",–,430 ± 40,–,1.8 ± 0.9,remaining activity at 1 µM (5-LOX [2]): 14.7 ± 1.6%
